Laboratory results taken from PMC6018554, “2-[2-(4-(trifluoromethyl)phenylamino)thiazol-4-yl]acetic acid (Activator-3) is a potent activator of AMPK” (Scientific Reports, 2018).

How the values were obtained:
Format in all cases: biochemical
[1] = system: human recombinant α1β1γ1 AMPK γ1 mutants (R70G, R152G); experiment: In vitro kinase assay with mutant AMPK pulled down from HEK-293T cells; details: 30 nM Activator-3; γ1 R70G, R152G mutants
Experimental: A high binding Enzyme Immuno Assay (EIA) 96-well plate (Sigma: Cat# CLS3590) was coated with Acetyl CoA Carboxylase 2 (ACC: 175–271 amino acids) peptide, a direct substrate for AMPK, 100 ng per well (1:1000 ratio, Cat# 12–491, Upstate biotechnology) and incubated overnight at 25 °C. Reaction mixture was incubated at 30 °C for 2 h and reaction was stopped by washing the plate with 0.05% Tween 20 followed by incubation with pACC primary antibody and rabbit secondary antibody as described in cell based ELISA section. Assay buffer is composed of 10 mM DTT, 100 mM magnesium acetate, 50 μM ATP and 10 mM HEPES.
R70 and R152 residues in AMPK γ1 subunit (pDONR223-PRKAG1: purchased from addgene, cat# plasmid#23718) are mutated to glycine using overlapping extension PCR. Subsequently, the mutants were transferred into a triple tagged destination vector (Streptavidin, Flag and Biotin; SFB-pDEST) by using gateway cloning technology. The mutant DNA was transfected into HEK-293T cells using PEI following standard procedures. After 4 h of transfection, media was changed to DMEM containing 10% FBS. Cells were lysed in TENNS lysis buffer (20 mM Tris pH:8.0, 100 mM NaCl, 1 mM EDTA, 10 mM Na2H2P2O7, 10 mM NaF, 10 mM Na3VO4, 0.5% NP40) and subjected to pull down using streptavidin beads followed by biotin elution. To protect the protein from dephosphorylation, cells were treated with 500 μM AICAR prior to lysis. This purified protein was estimated by using nanodrop and taken for in vitro kinase assay to check whether Activator-3 is binding to the mutant AMPK or not, and the activity of the mutant protein was assessed by comparing with the wild type protein activity.

[2] = system: panel of 100 protein kinases; experiment: Cell-free kinase panel (Kinexus), whole panel; details: 10 µM
Experimental: To determine whether Activator-3 affects the activity of any other protein kinases, we screened it in cell-free assays against a panel of 100 protein kinases (Kinexus, Canada). […] Three kinases, DDR1 (−79%), SRC (−71%) and ALK5 (−61%) were inhibited by Activator-3 by more than 50% at 10 µM.

[3] = biological target: human recombinant AMPK α2β1γ1 (Homo sapiens, UniProt P54619); experiment: Phosphatase protection assay (PP2C); design: host or cells: baculovirus expression; details: 10–100 nM
Experimental: The reaction was stopped by adding SDS-loading dye immediately to the reaction mixtures followed by boiling the samples at 95 °C for 10′. These samples were run on a 10% SDS-PAGE and probed for AMPK and pAMPK (1:1000; Cell Signaling Technologies).

human recombinant AMPK α2β1γ1, sequence (P54619 whole entry): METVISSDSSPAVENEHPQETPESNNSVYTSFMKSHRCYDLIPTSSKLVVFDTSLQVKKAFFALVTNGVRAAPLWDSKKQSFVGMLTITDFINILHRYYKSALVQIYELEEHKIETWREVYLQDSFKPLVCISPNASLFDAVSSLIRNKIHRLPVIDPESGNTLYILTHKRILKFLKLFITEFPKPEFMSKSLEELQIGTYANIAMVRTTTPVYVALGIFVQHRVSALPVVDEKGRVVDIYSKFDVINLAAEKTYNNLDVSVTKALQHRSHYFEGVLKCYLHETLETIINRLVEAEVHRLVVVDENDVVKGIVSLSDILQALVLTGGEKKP
human recombinant AMPK α2β1γ1, sequence (P54646 whole entry partner): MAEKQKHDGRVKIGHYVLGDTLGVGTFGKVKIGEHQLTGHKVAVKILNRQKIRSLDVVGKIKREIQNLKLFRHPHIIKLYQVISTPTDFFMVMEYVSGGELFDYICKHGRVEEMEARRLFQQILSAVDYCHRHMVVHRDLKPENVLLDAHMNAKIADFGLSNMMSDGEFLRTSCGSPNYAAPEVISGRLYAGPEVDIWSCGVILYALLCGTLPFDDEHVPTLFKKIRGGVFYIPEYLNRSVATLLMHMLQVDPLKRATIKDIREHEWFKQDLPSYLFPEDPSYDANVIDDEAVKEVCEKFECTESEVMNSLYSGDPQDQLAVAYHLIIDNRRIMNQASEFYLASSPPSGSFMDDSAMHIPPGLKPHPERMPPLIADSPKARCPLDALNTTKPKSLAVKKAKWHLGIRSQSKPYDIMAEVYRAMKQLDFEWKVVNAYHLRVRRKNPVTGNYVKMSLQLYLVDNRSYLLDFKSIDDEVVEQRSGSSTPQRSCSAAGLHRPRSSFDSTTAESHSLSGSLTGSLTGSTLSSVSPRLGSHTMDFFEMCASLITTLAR
human recombinant AMPK α2β1γ1, sequence (Q9Y478 whole entry partner): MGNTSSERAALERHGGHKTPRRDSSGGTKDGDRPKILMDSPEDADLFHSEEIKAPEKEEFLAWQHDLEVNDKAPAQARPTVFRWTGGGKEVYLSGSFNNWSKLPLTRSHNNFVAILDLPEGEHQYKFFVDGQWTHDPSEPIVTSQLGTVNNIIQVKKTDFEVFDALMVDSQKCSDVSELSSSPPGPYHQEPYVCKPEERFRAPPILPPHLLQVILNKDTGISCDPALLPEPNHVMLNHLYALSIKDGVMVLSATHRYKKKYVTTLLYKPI

protection against PP2C mediated dephosphorylation of Thr172 AMPK [3]: provided protection
SMILES: O=C(O)Cc1csc(Nc2ccc(C(F)(F)F)cc2)n1 [Activator-3, 2-[2-(4-(trifluoromethyl)phenylamino)thiazol-4-yl]acetic acid]
AMPK activity of mutant proteins vs wild type [1]: significant reduction
effect on kinase activity, majority of panel [2]: not affected
